Assay: gradient 5% acetonitrile 3 min, to 50% in 2 min, to 85% in 15 min, held 3 min, 100 µL/min
Conditions: column: Zorbax Extend-C18 2.1 x 50 mm; eluents: water / acetonitrile, 0.1% formic acid
Procedure, shortened: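 Retention times of pure standards were taken from adduct peaks that were selected by computer and manually inspected. Over 3 months, mixtures of ~100 molecules were run by HPLC–quadrupole time-of-flight mass spectrometry in positive and negative ionization mode. The Zorbax Extend-C18 column (2.1 × 50 mm, 1.8 μm) ran at 100 μL/min in water and acetonitrile, each containing 0.1% formic acid, with 40 μL dead volume and 900 μL dwell volume.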

| RP-LC retention time [s] | SMILES |
| --- | --- |
| 633 | O=C(c1ccc(F)cc1F)N1CCC(n2cnnc2C2CC2)CC1 |
| 742 | Cc1oc(C2CCN(C(=O)Cc3cccs3)CC2)nc1C(=O)N1CCSCC1 |
| 861 | Cc1ccc(NS(=O)(=O)c2cn(C(C)C)c3ncccc23)cc1F |
| 608 | CC1(C)CS(=O)(=O)N(c2cccc(C(=O)N3CCN(c4ccccn4)CC3)c2)C1=O |
| 1030 | Cc1cc(C)cc(C(=O)Nc2ccc3c(c2)Sc2ncccc2C(=O)N3C(C)C)c1 |
| 875 | COc1ccccc1Nc1c(-c2ccccc2)nc2cnccn12 |
| 1170 | O=C(Nc1ccc(-c2nc(-c3ccc(F)cc3)no2)cc1)c1cccs1 |
| 693 | COc1ccccc1NC(=O)c1[nH]c2cc(C)sc2c1CN1CCOCC1 |
| 1060 | COc1ccc(-c2nnc(-c3ccc(Cl)c(S(=O)(=O)N4CCCC4)c3)o2)cc1 |
| 906 | Cc1ccc(NC(=O)Cn2c(=O)n(-c3ccccc3)c3ncccc32)cc1C |
| 662 | Cc1cc(NC(=O)N(C)Cc2nc3cc(C(=O)N(C)C)ccc3n2C)ccc1Br |
| 617 | COc1cc(C(=O)NCC(c2ccc3c(c2)OCO3)N2CCOCC2)cc(OC)c1OC (stereo unspecified) |
| 941 | Cc1ccc(-c2noc(-c3cccc(S(=O)(=O)Nc4cccnc4)c3)n2)cc1 |
| 708 | COc1ccc(CC(=O)Nc2cc(-c3cccnc3)no2)cc1 |
| 620 | O=S(=O)(NCCN1CCN(c2ccc(Cl)cc2)CC1)c1ccc2c(c1)OCCO2 |
| 650 | CCN1CCC(N(Cc2ccc3c(c2)OCO3)C(=O)Nc2ccccc2)CC1 |
| 1040 | CCOc1ccccc1NC(=O)N1CCC(c2cnn(-c3ccccc3)c2)CC1 |
| 1250 | CCN(CC)c1nc2cc(C(=O)OC)ccc2c(=O)n1CCc1ccccc1 |
| 793 | Cc1ccccc1N1CCN(C(=O)Cn2c(=O)c3nnc(C)n3c3ncccc32)CC1 |
| 614 | CCCCN(C)C(=O)C1CCN(c2cncnc2N2CCOCC2)CC1 |
| 607 | COc1ccc(OC)c(CN2CCc3nc(N4CCOCC4)ncc3C2)c1 |
| 886 | O=C(CCc1conc1-c1ccc(F)cc1)NCc1ccc(F)cc1 |

| RP-LC retention time [s] | SMILES |
| --- | --- |
| 647 | CC(=O)N1CCc2cc(-c3ccc(C(=O)N4CCN(Cc5ccc6c(c5)OCO6)CC4)cc3)ccc21 |
| 809 | COc1cc(NC(=O)Cn2cc(-c3nnc(C)o3)c3ccccc32)cc(OC)c1 |
| 493 | CCN(CC)CCNC(=S)Nc1ccc2nc(N3CCN(CC)CC3)cc(C)c2c1 |
| 641 | CCN1CCN(C(=O)c2cnn(-c3cc(-c4nc(C5CC5)no4)ccn3)c2C)CC1 |
| 631 | CCCn1c(C(=O)NCCc2ccc(S(N)(=O)=O)cc2)cc2c(=O)n(C)c(=O)n(C)c21 |
| 977 | Cc1cccc(N2CCN(C(=O)C3CCCN(c4nc5ccccc5n5cccc45)C3)CC2)c1C (stereo unspecified) |
| 981 | CCOC(=O)c1cc2ccsc2n1CC(=O)NCc1ccc(C)cc1 |
| 634 | CNc1nc(Nc2ccccc2F)nc2ccccc12 |
| 782 | O=C(NCc1nnnn1C1CCCCC1)c1ccccc1C(F)(F)F |
| 838 | O=C(Cc1ccc(Cl)cc1)N1C[C@@H]2C[C@H]1C[C@@H]2NS(=O)(=O)c1cccs1 |
| 1150 | COc1cccc(-c2nc(C3CCN(S(=O)(=O)c4cccc(C)c4)CC3)no2)c1 |
| 631 | O=C(c1ccc2c(c1)OCO2)N1CCCCC1c1nncn1CC1CC1 (stereo unspecified) |
| 1250 | Cc1ccc(NC(=O)c2cc(C(C)C)n3nccc3n2)cc1C |
| 599 | CCOc1ccc(-n2cc(-c3nc(-c4ccccn4)no3)c3ccccc3c2=O)cc1 |
| 1160 | O=C(COc1ccccc1-c1nnc(-c2ccccc2)o1)Nc1ccc2c(c1)OCCO2 |
| 666 | CCOC(=O)c1cccc(Nc2c(C(=O)N3CCC(C)CC3)cnc3nc(C)ccc23)c1 |
| 735 | CC1CCN(CCNS(=O)(=O)c2ccccc2-c2nc(-c3ccccc3)no2)CC1 |
| 1390 | Fc1ccccc1N1CCN(c2ncccc2-c2nc(-c3ccccc3)no2)CC1 |
| 878 | CN(C)S(=O)(=O)c1ccc(-c2nnc(C(=O)NCc3cc(F)cc(F)c3)o2)cc1 |
| 686 | CC(C)NC(=O)C1CCN(C(=O)c2ncn3c2COC(c2ccccc2)C3)CC1 (stereo unspecified) |
| 730 | Cc1ccc(-c2cn3cccnc3n2)cc1NC(=O)c1ccc(Br)cc1 |
| 930 | COc1ccc(N2C=C(C#N)S(=O)(=O)c3ccc(C)cc32)c(OC)c1 |

| RP-LC retention time [s] | SMILES |
| --- | --- |
| 761 | O=C(O)c1cccc2c1CCN2C(=O)c1ccc(F)cc1 |
| 660 | CCCN(C(=O)Nc1ccc(CC)cc1)c1nc(-c2ccc(Br)cc2)cs1 |
| 821 | Cc1cnc(C(=O)NC2C[C@H]3CC[C@@H](C2)N3C(=O)CCC2CCCCC2)cn1 (stereo partly specified) |
| 757 | COc1ccc(CCNC(=O)C2CCc3nc(N4CCC(C)CC4)ncc3C2)cc1OC (stereo unspecified) |
| 625 | Cc1ccc(-c2noc(CCN3CCN(c4ccccn4)CC3)n2)cc1 |
| 820 | Cc1cc(C)c(C(=O)N2CCC(CC(=O)NCc3cccc(Br)c3)CC2)[nH]1 |
| 573 | CCCn1c(C)cnc1C1CN(C(=O)c2ccoc2)C1 |
| 581 | COc1ccc(CN2CCC3(CC2)CC(O)CCO3)c(OC)c1 (stereo unspecified) |
| 786 | CC(C)Cc1ccc(S(=O)(=O)N2CCC3(CC2)CCC(O)(CN2CCCC2)CC3)cc1 |
| 719 | CCCNC(=O)c1ccc2c(=O)n(Cc3ccccc3)c(N3CCCC3)nc2c1 |
| 661 | CC(C)NC(=O)N1CCCC(c2nc(C3CCOCC3)no2)C1 (stereo unspecified) |
| 848 | Cc1ccc(F)c(NS(=O)(=O)c2cc3c(s2)CCN(C(=O)C2CC2)C3)c1 |
| 685 | COc1ccc(-c2cn3cccnc3n2)cc1NC(=O)c1ccccc1Br |
| 796 | COC1CN(C2CCN(C(=O)c3sc(C)nc3C)CC2)C12CCOCC2 (stereo unspecified) |
| 661 | COCCC1CCN(C(=O)CN(C)C(=O)c2n[nH]c3ccccc23)CC1 |
| 869 | CCn1c(=O)c2c(nc(/C=C/c3ccc(OC)c(OC)c3)n2C)n(CC)c1=O |
| 701 | CN(C)C(=O)c1ccc2c(c1)N(CC(=O)N1CCCCC1)C(=O)C1CCCCN21 (stereo unspecified) |
| 682 | Cc1nc(C)c(C(=O)NCC23CCCC=C2N(C)C(=O)CC3)s1 (stereo unspecified) |
| 835 | COC(=O)c1cn(CC(=O)NC(C)c2ccc3c(c2)OCCCO3)c2ccccc12 (stereo unspecified) |
| 662 | COC(=O)C[C@](O)(CCCC(C)(C)O)C(=O)O[C@@H]1C(OC)=C[C@]23CCCN2CCc2cc4c(cc2[C@H]13)OCO4 |
| 822 | COCCCNC(=O)c1ccc2c(c1)CCCN2S(=O)(=O)c1ccccc1 |
| 635 | O=C1NC2(CCN(C(=O)c3ccc(F)cc3)CC2)N=C1c1cccc(F)c1 |
